Data as given in patent US20070129410A1, “Octahydrophenanthrene hydrazinde derivatives useful as glucocorticoid receptor modulators” (Pfizer Inc., priority 2003, published 2007).

Key:
[1] = test system: IL-8 (Interleukin-8) production; test: Glucocorticoid inhibition of IL-1 induced IL-8 production in SW1353 human chondrosarcoma cells; type: cell-based; details: 20 ng/ml IL-1 beta, 24 hours after IL-1 addition, ELISA, read-out: IC50, inhibition of IL-8 expression
Protocol: (§1) This assay, the glucocorticoid inhibition of IL-1 (Interleukin-1) induced MMP-1 (Matrix Metalloproteinase-1) and IL-8 (Interleukin-8) production in human chondrosarcoma cells, is conducted as follows: SW1353 human chondrosarcoma cells (obtained from ATCC) from passage 12 through passage 19 are used in a 96 well format assay. Cells are plated at confluence into 96 well plates in DMEM (Dulbecco's Modified Eagle Medium) with 10% fetal bovine serum and incubated at 37° C., 5% CO2. After 24 hours, serum containing media is removed and replaced with 200 ul/well DMEM containing 1 mg/L insulin, 2 g/L lactalbumin hydrosylate, and 0.5 mg/L ascorbic acid and returned to incubation at 37° C., 5% CO2. […] IL-8 production is assessed using the Quantikine human IL-8 ELISA kit from R&D Systems (D8050) on samples diluted 60-fold in RD5P Calibrator Diluent, following the manufacturer's protocol. The percent of the average IL-1 control is determined for the average of each of the triplicate samples following subtraction of the average signal from untreated cells. IC50's are determined from log linear plots of the percent of control versus the concentration of inhibitor. […] MMP-1 production is assessed via the Bio-Trak MMP-1 ELISA kit from Amersham (RPN2610) on 100 ul of neat sample following the manufacturer's protocol. […]

[2] = test system: MMP-1 (Matrix Metalloproteinase-1) production; test: Glucocorticoid inhibition of IL-1 induced MMP-1 production in SW1353 human chondrosarcoma cells; type: cell-based; details: 20 ng/ml IL-1 beta, 72 hours after IL-1 addition, ELISA, read-out: IC50, inhibition of MMP1 expression
Protocol: as §1

IC50 [1]: 5 nM
IC50 [2]: 5 nM
Compound: C[C@@H]1C[C@H]2[C@@H]3CCC4=CC(=O)C=C[C@]4(C)[C@@]3(F)[C@@H](O)C[C@]2(C)[C@@]1(O)C(=O)CO [Dexamethasone]
